Results: article PMC11855866 (International Journal of Molecular Sciences, 2025)
Converted amounts (≈) assume the structure as drawn. Read-outs that look alike come from different tables or passages of the source.

Experiments:
[1] = MTT cytotoxicity / synergy assay, 72 h, MCF-7; format: cell-based, human; details: human, MCF-7 cells
Method: (§1) Stock solutions of the tested compounds were first prepared in DMSO at 200-fold the intended final concentration. […] The cells were treated for 72 h under the same conditions.
(§2) Following treatment, 25 μL of MTT solution was added to each well, and the plates were incubated for 2 h at 37 °C. […] IC₅₀ values, indicating the concentration required to reduce cell viability by 50% compared to untreated controls (set as 100% viability), were calculated using GraphPad Prism 9 software (GraphPad Software, San Diego, CA, USA). All data from this preliminary cytotoxic assay were analyzed by ANOVA followed by Tukey’s post hoc test for multiple comparisons, with significance set at p < 0.05. A similar statistical approach was used for the rest of the experimental work presented in this study.

MCF-7 cells [2] = experiment: MTT cytotoxicity / synergy assay, 72 h, MCF-7; format: cell-based, human; details: 72 h
Method: as §1, §2

U-87MG cells = experiment: MTT cytotoxicity / synergy assay, 72 h, U-87MG; format: cell-based; details: Homo sapiens, n.d. = IC50 not achieved within concentrations tested, read-out: IC50 Value in Specific Cell Line, U-87MG
Method: (§4) The synergistic effects of drug combinations were studied in various cancer cell lines, including MCF-7 (human breast cancer), A549 (human lung cancer), U-87 MG (human malignant glioma), HepG2 (human liver cancer), and HUH7 (human liver cancer). HMEC-1, an immortalized human microvascular endothelial cell line, was used as a model for normal cells. All cell lines were purchased from ATCC (Rockville, MD, USA).
(§5) The cancer cell lines were cultured in Dulbecco’s Modified Eagle’s Medium (DMEM; Sigma-Aldrich) supplemented with 10% FBS and 1% penicillin/streptomycin mixture (10,000 U/mL penicillin and 10 mg/mL streptomycin; Sigma-Aldrich) at 37 °C in a humidified atmosphere with 5% CO2.
(§6) For the MTT assay, exponentially growing cells were seeded into 96-well plates at a density of 5 × 10³ cells per well. After 24 h of incubation, the medium was replaced with 100 µL of fresh medium containing the tested compounds. After 72 h of treatment, cell viability was assessed using the MTT assay as described earlier. […] IC50 values were calculated using GraphPad Prism 9 software (GraphPad Software).

A549 cells = experiment: Doxorubicin accumulation assay, A549; format: cell-based, human; details: 50 µM DOXO and 1.56 µM GLIM, 3 h
Method: (§3) Cells were seeded at a density of 2 × 10^4 cells per well in black 96-well plates as described in Section 3.6.

[3] = test system: A549, HepG2, MCF-7, and U-87MG; experiment: Doxorubicin accumulation assay, sensitive cell lines; format: cell-based, human
Method: as §3

4T1 tumors = experiment: 4T1 breast cancer in BALB/c mice; format: in vivo; details: GLIM alone 4 mg/kg i.p.
Method: Six- to eight-week-old female BALB/c mice (Charles River Breeding Laboratories, Wilmington, MA, USA) were bred at the Maria Sklodowska-Curie National Research Institute of Oncology, Gliwice Branch (Gliwice, Poland), under a HEPA-filtered Allentown's IVC System (Allentown Caging Equipment Co., Allentown, NJ, USA). All efforts to minimize animal suffering were made by qualified personnel. This study was carried out in strict accordance with the recommendations in the Guide for the Care and Use of Laboratory Animals of the National Institutes of Health. The protocols were approved by the Committee on the Ethics of Animal Experiments of the Local Ethics Commission (Medical University of […], Poland; Permit No. 22/2024). BALB/c mice were injected subcutaneously in the lower flank with 2 × 10^5 4T1 cells suspended in 100 μL PBS. […] Each treatment was administered a total of five times.

[4] = DLS particle size measurements; format: physicochemical
Method: Dynamic light scattering (DLS) measurements were performed using a Zetasizer Nano ZS instrument (Malvern Instruments, Malvern, UK). Samples of 2 mL were placed in disposable PMMA cuvettes (cat. #634-0677; VWR, Gdańsk, Poland) and measured at 37 °C. To ensure accuracy, each sample was measured at least three times. The data were processed using DTS v6.2 software (Malvern Instruments).

[5] = Analysis of drug solubility (Cobs by HPLC); format: physicochemical
Method: The drug content in the samples was determined using a previously described HPLC method. The analysis was performed on an Ultimate 3000 HPLC system (Dionex Co., Germering, Germany), equipped with a UV–Vis detector and a TSKgel ODS-100V column (particle size: 5 µm; dimensions: 4.6 mm i.d. × 15 cm; Tosoh Co., Tokyo, Japan). The mobile phase consisted of MeCN and 20 mM KH2PO4 buffer (pH 3.0) in an appropriate ratio. The flow rate was maintained at 1.0 mL/min, with the column temperature set to 30 °C. All compounds were detected at 228 nm.
Some samples included 0.05% (v/v) Tween-80. For experiments involving BSA, a separate solution was prepared by dissolving 4.5 mg/mL of BSA (cat. #422381B, VWR) in the same PBS (pH 7.4), with or without 0.05% (v/v) Tween-80. All samples were incubated at 37 °C with shaking for 24 h. After incubation, the samples were either centrifuged at 13,500 rpm (RCF = 12,225 g) for 15 min using a Micro Star 12 microcentrifuge (VWR), and 150 µL of the supernatant was collected for HPLC analysis, or filtered using 0.22 µm PVDF syringe filters (13 mm i.d., cat. #514-1251, VWR) or AcroPrep™ Advance 96-well filter plates (Pall Corporation, Dreieich, Germany) with various molecular weight cut-offs.

[6] = MTT cytotoxicity, range over the cell panel; format: cell-based; details: human; range over the tested cell lines; read-out: cytotoxicity (IC50 range over cell lines), our study
Method: HMEC-1, an immortalized human microvascular endothelial cell line, was used as a model for normal cells.
as §5, §6

[7] = parameters: method as in Figure S2 [39–71]; details: ref Figure S2 [39–71]; cited from earlier work
[8] = cited from earlier work
MCF-7 cells [9] = details: cited from earlier work
[10] = test system: 4T1 breast cancer and B16F10 melanoma xenografts; details: 4T1, B16F10 xenografts, MMTV-PyMT; cited from earlier work
multiple cell lines = test system: multiple cell lines; parameters: method as in Alkhalil et al. and others [10,11,16,26]; details: range reported; ref Alkhalil et al. and others [10,11,16,26]; read-out: cytotoxicity (IC50 range over cell lines), literature; cited from earlier work
HuH7 cells = experiment: MTT cytotoxicity / synergy assay, 72 h, HuH7; details: Homo sapiens, Huh-7, 72 h, read-out: IC50 Value in Specific Cell Line, HuH7
Method: as §4, §5, §6

HMEC-1 cells = experiment: MTT cytotoxicity / synergy assay, 72 h, HMEC-1; details: Homo sapiens, HMEC-1, 72 h, read-out: IC50 Value in Specific Cell Line, HMEC-1
Method: as §4, §5, §6

With `CCC1=C(C)CN(C(=O)NCCc2ccc(S(=O)(=O)NC(=O)N[C@H]3CC[C@H](C)CC3)cc2)C1=O` [GLIM, Glimepiride] the viability at 72 h ([1]; 0.05% Tween-80, read-out: MCF-7 viability with 0.05% Tween-80) was 71.2%, the viability at 72 h ([1]; before addition of 0.05% Tween-80, read-out: MCF-7 viability without Tween-80) was 95.9% and the “decrease in cell viability caused by 0.05% Tween-80” value (MCF-7 cells [2]; with vs. without 0.05% Tween-80) was 24.6%. For the same compound, the IC50 (MCF-7 cells [2]; Homo sapiens, MCF7, 72 h, MTT, n.d. = IC50 not achieved within concentrations tested, read-out: IC50 Value in Specific Cell Line, MCF-7) was 175 µM, the IC50 (U-87MG cells) was 186 µM and the “increase in DOXO level compared to DOXO monotherapy” value (A549 cells) was 227%. For the same compound, the “increase of DOXO levels” value [3] was “up to 2.3 times”, the “body weight compared to controls” value (4T1 tumors) was “no significant change in body weight” and the “tumor size compared to untreated controls” value (4T1 tumors) was “no reduction in tumor size”. For the same compound, the “d¯I of drug aggregates” value ([4]; PBS pH 7.4, 37 °C, […] BSA, GLIM beyond 200 µM) was “approx. 353 nm”, the diameter of aggregates ([4]; absence of BSA, buffers and culture media) was “over 300 nm” and the “concentration up to which Cobs matches the expected concentration” value ([5]; GLIM only in PBS pH 7.4, 37 °C, 24 h, centrifugation) was “up to 100 µM”. For the same compound, the “observed concentration (Cobs)” value ([5]; GLIM only, 0.22 µm syringe filters, all tested samples) was 8.6 to 16.6 µM, the solubility kinetic at 24 h ([5]; PBS, pH 7.4, aqueous buffer, read-out: observed concentration (Cobs) above the threshold) was ~5 µM (≈ 2.45 µg/mL) and the IC50 at 72 h [6] was 135 to 473 µM. For the same compound, the solubility [7] was 12.2 µM (≈ 5.99 µg/mL), the protein-bound in plasma [8] was 99.4% and the IC50 (MCF-7 cells [9]; calculated by the authors from the results of Faridi et al., read-out: IC50 value, MCF-7) was 79.8 µM. For the same compound, the IC50 (MCF-7 cells [9]; read-out: IC50, MCF-7) was 50 µM, the “effect on tumor growth and metastasis” value [10] was “no effect” and the IC50 (multiple cell lines) was 89.4 to 426 µM. It also gave an IC50 (HuH7 cells) of 476 ± 7 µM and a CC50 (HMEC-1 cells) of 136 ± 5.1 µM.
